Laboratory results as given in PubChem BioAssay (NCI).
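In this assay, cells in 96-well plates receive the compound at five concentrations for 48 hours. Endpoints are linearly interpolated between the surrounding concentrations. At the GI50, growth is halved. TGI marks complete inhibition of growth.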

What was measured:
Assay in all cases: NCI-60 cell line screen, 48 h
[1] = test system: RXF 393 renal
[2] = test system: SK-MEL-28 melanoma
[3] = test system: M14 melanoma
[4] = test system: SF-268 CNS
[5] = test system: CAKI-1 renal
[6] = test system: U251 CNS
[7] = test system: EKVX NSCLC
[8] = test system: OVCAR-5 ovarian
[9] = test system: HL-60(TB) leukemia
[10] = test system: SF-539 CNS

SMILES	GI50 [1] [µM]	TGI [1] [µM]	GI50 [2] [µM]	TGI [2] [µM]	GI50 [3] [nM]	TGI [3] [µM]	GI50 [4] [µM]	TGI [4] [µM]	GI50 [5] [nM]	TGI [5] [µM]	GI50 [6] [µM]	TGI [6] [µM]	GI50 [7] [µM]	TGI [7] [µM]	GI50 [8] [µM]	TGI [8] [µM]	GI50 [9] [nM]	TGI [9] [µM]	GI50 [10] [µM]	TGI [10] [µM]
O=C(Nc1cccc([N+](=O)[O-])c1)c1ccc2ccccc2c1O	3.37	> 35.4	6.03	> 100	6810	> 100	7.72	> 100	2480	> 38.4	4.36	> 86.8	2.9	> 57.2	20.6	> 100	4710	> 44.5	4.63	> 64.8
COc1ccc(Cn2cc3c(c2-c2ccc(O)cc2)CCc2cnoc2-3)cc1	0.309	3.67	0.616	21.7	325	16.5	0.784	18.5	331	18.8	0.447	15.1	0.438	26.9	0.829	21.6	221	0.745	0.273	3.33
Cc1ccc(/C=C/C(=O)c2ccc(N)cc2)c(C)c1	5.56	17.9	16.6	30.3	2450	7.52	1.88	3.7	1720	3.18	6.5	19.3	19.5	38.8	7.32	27.9	2890	11.4	2.39	5.45
O=C(Nc1cccnc1)c1cccc([N+](=O)[O-])c1	> 100	> 100	> 100	> 100	> 100000	> 100	> 100	> 100	> 100000	> 100	> 100	> 100	> 100	> 100	> 100	> 100	> 100000	> 100	> 100	> 100
CC(=O)Nc1ccc2c(c1)C(=O)c1cccc(F)c1-2	–	> 91.2	–	> 100	–	> 100	–	> 100	–	> 100	–	> 100	–	> 100	–	> 100	–	> 100	–	> 100
O=C1Nc2ccccc2/C1=C/c1ccccc1	–	22.9	–	44.4	–	30.6	–	35.1	–	> 100	–	30	–	28.8	–	34.5	–	43.5	–	42.6
CC(C)(C)c1cn2cccc(C(=O)N3CCN(CC(=O)Nc4ccc(Cl)cc4C(=O)c4ccccc4Cl)CC3)c2n1	1.71	6.34	11	28.8	15400	33.2	13	43.6	3310	14.2	7.68	25.5	5.79	66.7	16.1	44.9	> 100000	> 100	10	22.3
COc1ccc(/C(=N\O)c2cc(OC)c(OC)c(OC)c2)c(OC)c1N	2.79	> 100	–	–	2980	> 100	6.5	> 100	4380	> 100	5.17	> 100	5.96	> 100	–	–	2600	6.55	2.89	> 100
N#CCCN(CCC#N)c1ccc(/C=N\c2nc(-c3ccccc3)cs2)cc1	–	> 100	–	> 100	–	> 100	–	> 100	–	> 100	–	–	–	> 100	–	> 100	–	> 100	–	> 100
O=C1Nc2ccccc2/C1=C/c1cn(C(=O)c2c(Cl)cccc2Cl)c2ccccc12	4.14	16.6	–	–	2340	8.19	2.38	10.6	1890	5.77	3.47	15.5	2.83	16.3	8.85	50.1	2460	11	4.96	21.1
COc1ccc(NC(=O)COC(=O)c2cccc3c(=O)c4ccccc4[nH]c23)cc1	–	35.5	–	84.8	–	90.7	–	55.2	–	67.9	–	44.8	–	96.2	–	–	–	25.8	–	37.1
Cc1cc(O)ccc1O	15.5	29.1	30.6	> 100	–	–	35.3	> 100	20700	57.4	32.8	> 100	36.9	> 100	16.6	32.1	2640	7.43	15.3	29.6
COc1cc(-n2cc(-c3ccc(F)cc3)[nH]c2=S)cc(OC)c1OC	71.4	> 100	> 100	> 100	–	–	32.8	> 100	38100	> 100	> 100	> 100	> 100	> 100	> 100	> 100	> 100000	> 100	63.1	> 100
Cc1ccc(NC(=O)COC(=O)c2cccc3c(=O)c4ccccc4[nH]c23)cc1	–	60.5	–	> 100	–	> 100	–	> 100	–	> 100	–	> 100	–	> 100	–	–	–	> 100	–	> 100
CC1C=CC(C)C2(O)C(=O)NC(O)C12 (stereo not drawn)	–	> 100	–	> 100	–	> 100	–	> 100	–	> 100	–	> 100	–	> 100	–	–	–	> 100	–	> 100
CCCCCCCCCCCCCCCCOC(=O)c1c(C)[nH]c(/C=C2\N=C(c3ccc[nH]3)C=C2OC)c1C	1.41	6.46	3.94	> 48.7	152	0.452	1.99	19.6	212	30.5	0.638	7.04	–	–	0.718	–	151	> 100	2.3	13.6
